The target in test [1] is T1, Full length wild-type cereblon CRBN (Homo sapiens, UniProt Q96SW2).
T1 construct: Full length wild-type cereblon CRBN (80.0 nM, 10 μL) was incubated in assay buffer
Description: Fluorescence polarization (FP) assay indicating cereblon binding. The protocol: Compound activity was monitored in a fluorescence polarization (FP) homogeneous assay using 1-[5-({2-[2-(2-{[2-(2,6-dioxopiperidin-3-yl)-1,3-dioxo-2,3-dihydro-1H-isoindol-4-yl]oxy}acetamido)ethoxy]ethyl}carbamoyl)pentyl]-3,3-dimethyl-2-[(1E,3E)-5-[(2E)-1,3,3-trimethyl-5-sulfo-2,3-dihydro-1H-indol-2-ylidene]penta-1,3-dien-1-yl]-3H-indol-1-ium-5-sulfonate as a fluorescent probe. Unless otherwise stated, all reagents were purchased from Sigma Aldrich. Enzymatic reactions were conducted in Perkin-Elmer Black 384 well ProxiPlate Plus (catalogue no. 6008269) in 10 μL total volume. Full length wild-type cereblon CRBN (80.0 nM, 10 μL) was incubated in assay buffer containing 20 mM HEPES (pH 8.0), […], 0.5 mM TCEP and 0.05% Tween 20 in the presence or absence of compound (300 nL). Inhibitors were stored as 10 mM DMSO stocks in an inert environment (low humidity, dark, low oxygen, room temperature) using the Storage Pod System. Compounds and DMSO were dispensed using the Echo E5XX (Labcyte Inc. USA) to give concentrations from 300 to 0.937 or 3000 to 9.3 nM in a 12 data point curve. […] Following incubation at room temperature for 30 min, the assay was initiated by dispensing the probe to a final concentration of 5 nM (2.5 nL of a 20 μM stock) using the Echo E5XX. FP was measured after a period of 12 hours using a Pherastar plate reader (BMG Labtech, Germany) exciting at 590 nm and measuring the amount of parallel and perpendicular light at 675 nm. The FP signal was subsequently normalized to the no-compound control (i.e., DMSO). Analysis and IC50 values were derived using Dotmatics (Dotmatics UK) software.

For the next test, the target named is GSPT1 (Homo sapiens, UniProt P15170+Q96SW2). Description: GSPT1 degradation immunofluorescence assay in CAL-51 cells. Type of test: cell-based. More on the design: endogenous in cells; host or cells: CAL-51 (DSMZ ACC302). The following applies: 6 hours. The protocol:
CAL-51 cells were purchased from DSMZ (cat. Number ACC302), sub-cultured in 90% Dulbecco's MEM (4.5 g/L glucose, Gibco 11965)+10% heat inactivated FBS (BioConcept, 2-01F1361) and incubated at 37° C., 5% CO2. For the assay, imaging microtiterplate Cell Carrier 96 Ultra (Perkin Elmer 6055302) were pre-coated with Fibronectin (Sigma F085, 30 μl at 0.2 μg/ml) in PBS (100 μl, Gibco 14190) for 45 min at room temperature, rinsed with PBS and CAL-51 cells (30K cells/well) were plated and let to adhere overnight. Cells were treated with compounds typically using a serial dilution ranging from 30 μM to 0.1 nM for 6 hours. Compounds were stored at 10 mM DMSO stocks. Vehicle (DMSO), positive (CC-885, 10 μM) and rescue controls (positive control plus 0.2 μM bortezomib) were also included at this stage. Cells were subsequently rinsed with PBS and fixed in 10% Formalin solution (50 μl, Sigma HT5011)) for 20 mins at room temperature. Following three consecutive PBS washes (100 μl), cells were permeabilized in 0.1% Triton X-100 in PBS (Sigma 93443, 50 μl) for 15 mins at room temperature. Following three further PBS washes, 50 μl blocking buffer (1% BSA, Sigma A4503, in PBS) was added for 45 min for signal-to-noise reduction. Primary antibody (human GSPT1, Sigma HPA052488) was diluted in blocking buffer (dil. 1/300, 35 μl/well) and incubated with the cells overnight at 4° C. After three PBS washes, Alexa-fluor 488 coupled secondary antibodies (Invitrogen, A32731, dil. 1/1000), Alexa-fluor 647-Phalloidin (Invitrogen, A22287, dil. 1/200) and DAPI (Thermo, #62248, dil. 1/1000) were diluted in blocking buffer and incubated with the samples for 2 hours at room temperature. After three final PBS washes, samples were conserved in 100 μl PBS in the dark, until measurement. Image acquisition was performed on the Operetta High-Content Imager (Perkin-Elmer). Fluorescence intensity of Alexa-Fluor 488 (GSPT1), Alexa-Fluor 647 (Actin) and DAPI (Nucleus) were measured. For the determination of GSPT1 DC50 values, a custom algorithm implemented in the PerkinElmer image analysis software Harmony-Acapella® was developed. After user-defined setting of adjustment parameters, the analysis was run identically without human intervention for all image fields. DAPI staining of the nuclei was used to determine the location of cells using standard nuclei detection modules. Segmentation artifacts were removed by threshold-based filters for area, roundness and intensity. The outline of the cells was determined analogously from the sum of the normalized, smoothed DAPI and Actin channel, starting from each nucleus. The Alexa-Fluor 488 (GSPT1) signal intensity in each cell was finally measured, in order to obtain a Mean intensity per cell. GSPT1 degradation (DC50) was calculated after normalization to controls and data import in CDD vault Database, using non-linear regression.

Where [2] appears, read: Table 5B, read-out: Activity for GSPT1 degradation, Code (DC50).
The mark [3] stands for this setting: bound stated, read-out: IC50 value.
Where [4] appears, read: Table 4, read-out: Activity for GSPT1 degradation, Code (DC50).
The mark [5] stands for this setting: bounds stated, read-out: IC50 value.

Structures are written as SMILES. Where two headings read alike, the source gives them in different places.

Sequence of GSPT1 (P15170 whole entry): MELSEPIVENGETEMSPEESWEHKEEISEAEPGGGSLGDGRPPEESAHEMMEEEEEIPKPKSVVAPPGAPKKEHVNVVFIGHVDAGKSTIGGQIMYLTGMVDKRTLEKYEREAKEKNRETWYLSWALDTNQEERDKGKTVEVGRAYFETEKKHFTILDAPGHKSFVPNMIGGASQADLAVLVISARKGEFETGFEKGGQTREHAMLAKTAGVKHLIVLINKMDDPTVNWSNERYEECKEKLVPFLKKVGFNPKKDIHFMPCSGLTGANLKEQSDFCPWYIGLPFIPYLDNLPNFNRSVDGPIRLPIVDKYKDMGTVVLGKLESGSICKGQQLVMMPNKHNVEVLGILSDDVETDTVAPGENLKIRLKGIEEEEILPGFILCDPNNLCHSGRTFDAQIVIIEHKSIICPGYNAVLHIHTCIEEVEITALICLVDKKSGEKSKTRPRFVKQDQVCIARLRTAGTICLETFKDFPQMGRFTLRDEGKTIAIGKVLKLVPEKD
Sequence of GSPT1 (Q96SW2 whole entry): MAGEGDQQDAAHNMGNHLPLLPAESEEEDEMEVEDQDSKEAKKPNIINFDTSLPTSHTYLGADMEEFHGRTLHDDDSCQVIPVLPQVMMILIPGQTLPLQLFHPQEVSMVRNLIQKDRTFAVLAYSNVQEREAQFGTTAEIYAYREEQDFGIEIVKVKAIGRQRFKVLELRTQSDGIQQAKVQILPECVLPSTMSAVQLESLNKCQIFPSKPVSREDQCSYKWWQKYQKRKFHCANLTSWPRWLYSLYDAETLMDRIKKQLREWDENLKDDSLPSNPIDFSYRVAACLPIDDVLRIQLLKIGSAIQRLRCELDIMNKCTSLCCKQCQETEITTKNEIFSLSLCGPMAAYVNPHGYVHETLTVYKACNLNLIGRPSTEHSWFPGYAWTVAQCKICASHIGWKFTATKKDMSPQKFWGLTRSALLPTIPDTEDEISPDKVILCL
Sequence of GSPT1 (Q16531 whole entry partner): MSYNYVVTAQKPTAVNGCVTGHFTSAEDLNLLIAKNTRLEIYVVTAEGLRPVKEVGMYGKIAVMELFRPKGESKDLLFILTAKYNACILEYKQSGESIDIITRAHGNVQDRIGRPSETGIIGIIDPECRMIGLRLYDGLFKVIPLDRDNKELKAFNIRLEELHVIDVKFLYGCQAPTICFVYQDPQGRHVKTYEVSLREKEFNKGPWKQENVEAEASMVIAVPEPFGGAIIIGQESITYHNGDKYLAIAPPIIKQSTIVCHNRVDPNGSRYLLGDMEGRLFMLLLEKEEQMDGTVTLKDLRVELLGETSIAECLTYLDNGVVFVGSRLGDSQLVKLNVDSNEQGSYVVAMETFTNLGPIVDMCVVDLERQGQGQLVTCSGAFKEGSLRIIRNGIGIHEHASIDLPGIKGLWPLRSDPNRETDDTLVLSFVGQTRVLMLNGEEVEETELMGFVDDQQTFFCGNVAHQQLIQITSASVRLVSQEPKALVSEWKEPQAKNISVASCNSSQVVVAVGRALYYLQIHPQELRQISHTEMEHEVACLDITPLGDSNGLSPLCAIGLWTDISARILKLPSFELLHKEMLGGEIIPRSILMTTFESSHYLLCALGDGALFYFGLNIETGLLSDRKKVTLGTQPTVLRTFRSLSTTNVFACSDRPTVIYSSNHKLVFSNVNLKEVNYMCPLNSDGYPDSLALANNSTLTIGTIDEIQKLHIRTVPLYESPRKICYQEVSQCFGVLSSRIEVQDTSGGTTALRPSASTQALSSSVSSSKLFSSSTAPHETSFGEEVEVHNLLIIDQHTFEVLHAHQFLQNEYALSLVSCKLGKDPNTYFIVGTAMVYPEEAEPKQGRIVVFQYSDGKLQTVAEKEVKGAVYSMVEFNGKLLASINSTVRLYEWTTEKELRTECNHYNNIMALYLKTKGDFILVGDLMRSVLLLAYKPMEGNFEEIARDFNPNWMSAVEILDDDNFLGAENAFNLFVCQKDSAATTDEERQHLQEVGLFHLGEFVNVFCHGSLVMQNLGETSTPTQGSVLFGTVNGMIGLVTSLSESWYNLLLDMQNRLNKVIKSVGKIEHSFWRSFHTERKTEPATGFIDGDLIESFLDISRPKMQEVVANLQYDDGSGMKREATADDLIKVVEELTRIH
T1 sequence (Q96SW2 whole entry): as the sequence (Q96SW2 whole entry) above

On to `CC(C)(C)c1ccc(NC(=O)OCc2cc(F)c3c(c2)C(=O)N(C2CCC(=O)NC2=O)C3)cn1` (stereo not drawn) [Compound 509], for which, in test [1] (Table 3B, read-out: rFP IC50), the IC50 (usually the concentration needed to halve the response being measured) fell in the range of 1200 to 1900 nM. In addition, on GSPT1 (setting [2]), the DC50 (commonly the concentration at which degradation of the target reaches its halfway point) was no more than 30 nM. As to `O=C1CCC(N2Cc3c(F)cc(COC(=O)Nc4cc(F)cc(Cl)c4)cc3C2=O)C(=O)N1` (stereo not drawn) [Compound 533], in test [1] (Table 3B, read-out: rFP IC50), the IC50 is greater than 1900 nM. For the same compound, on GSPT1 (setting [2]), the DC50 was in the range of 30 to 300 nM.

In the case of `O=C1CCC(N2Cc3c(F)cc(COC(=O)Nc4ccc(F)c(OC(F)(F)F)c4)cc3C2=O)C(=O)N1` (stereo not drawn) [Compound 514], in test [1] (Table 3B, read-out: rFP IC50), the IC50 was greater than 1900 nM. Besides, the DC50 at GSPT1 (setting [2]) fell in the range of 30 to 300 nM. For the compound `COc1cc(COC(=O)Nc2cc(F)cc(OC(F)F)c2)cc2c1CN(C1CCC(=O)NC1=O)C2=O` (stereo not drawn) [Compound 547], in test [1] (Table 3B, read-out: rFP IC50), the IC50 was in the range of 600 to 1200 nM. At GSPT1 (setting [2]), the DC50 is no more than 30 nM. Consider `COc1cc(COC(=O)Nc2ccc(F)c(OC(F)(F)F)c2)cc2c1CN(C1CCC(=O)NC1=O)C2=O` (stereo not drawn) [Compound 539], for which, in test [1] (Table 3B, read-out: rFP IC50), the IC50 lay within 1200 to 1900 nM. Also, the DC50 on GSPT1 (setting [2]) is no more than 30 nM. For `O=C1CCC(N2Cc3c(F)cc(COC(=O)Nc4ccc(-c5ccccc5F)c(F)c4)cc3C2=O)C(=O)N1` (stereo not drawn) [Compound 529], the IC50 in test [1] (Table 3B, read-out: rFP IC50) was greater than 1900 nM. The 50% degradation concentration (DC50) at GSPT1 (setting [2]) is no more than 30 nM. As to `COc1cc(COC(=O)Nc2cc(OC(F)(F)F)ccc2F)cc2c1CN(C1CCC(=O)NC1=O)C2=O` (stereo not drawn) [Compound 566], the DC50 on GSPT1 (setting [2]) was greater than 300 nM. `Cc1ccc(NC(=O)OCc2ccc3c(c2Cl)C(=O)N(C2CCC(=O)NC2=O)C3)cc1Cl` (stereo not drawn) [Compound 572]: the concentration for half-maximal inhibition (IC50) in test [1] (Table 3B, read-out: rFP IC50) is greater than 1900 nM. The DC50 at GSPT1 (setting [2]) was greater than 300 nM. The matching figures for `C[C@@H]1CCCN1c1ccc(NC(=O)OCc2cc(F)c3c(c2)C(=O)N(C2CCC(=O)NC2=O)C3)cn1` (stereo partly drawn) [Compound 523]: 600 to 1200 nM and no more than 30 nM. The matching figures for `COc1c(COC(=O)Nc2ccc(C)c(Cl)c2)ccc2c1C(=O)N(C1CCC(=O)NC1=O)C2` (stereo not drawn) [Compound 570]: greater than 1900 nM and greater than 300 nM. As to `Cc1cc(Cl)cc(NC(=O)OCc2cc(F)c3c(c2)C(=O)N(C2CCC(=O)NC2=O)C3)c1` (stereo not drawn) [Compound 527], the IC50 in test [1] (Table 3B, read-out: rFP IC50) lay within 1200 to 1900 nM. In addition, the 50% degradation concentration (DC50) on GSPT1 (setting [2]) was in the range of 30 to 300 nM. The matching figures for `O=C1CCC(N2Cc3c(F)cc(COC(=O)Nc4ccc(C5CCC5)cc4)cc3C2=O)C(=O)N1` (stereo not drawn) [Compound 522]: greater than 1900 nM and no more than 30 nM. For `O=C1CCC(N2Cc3c(F)cc(COC(=O)Nc4ccc(F)c(Cl)c4)cc3C2=O)C(=O)N1` (stereo not drawn) [Compound 532], in test [1] (Table 3B, read-out: rFP IC50), the IC50 was greater than 1900 nM. The DC50 on GSPT1 (setting [2]) lay in the range of 30 to 300 nM. On to `O=C1CCC(N2Cc3c(F)cc(COC(=O)Nc4cc(F)c(-c5ccccc5)c(F)c4)cc3C2=O)C(=O)N1` (stereo not drawn) [Compound 530], for which, in test [1] (Table 3B, read-out: rFP IC50), the IC50 was greater than 1900 nM. In addition, the DC50 at GSPT1 (setting [2]) lay in the range of 30 to 300 nM. As to `CN(C)CC(=O)Oc1cccc(CNC(=O)NCc2ccc3c(c2)C(=O)N(C2CCC(=O)NC2=O)C3)c1` (stereo not drawn) [Compound 136], in test [1] (setting [3]), the IC50 is less than 1100 nM. Besides, on GSPT1 (setting [4]), the DC50 was greater than 300 nM.

Consider `Cc1cc(NC(=O)OCc2cc(F)c3c(c2)C(=O)N(C2CCC(=O)NC2=O)C3)cnc1-c1ccccc1` (stereo not drawn) [Compound 520], for which, in test [1] (Table 3B, read-out: rFP IC50), the half-maximal inhibitory concentration (IC50) was in the range of 600 to 1200 nM. The DC50 at GSPT1 (setting [2]) was no more than 30 nM.

Take `Cc1c(Cl)cc(NC(=O)NCc2ccc3c(c2)C(=O)N(C2CCC(=O)NC2=O)C3)cc1CN1CC2CC1CO2` (stereo not drawn) [Compound 139]: in test [1] (setting [3]), the IC50 is less than 1100 nM. Further, the DC50 on GSPT1 (setting [4]) is no more than 100 nM. As for `COc1cc(COC(=O)Nc2cc(C)cc(F)c2)cc2c1CN(C1CCC(=O)NC1=O)C2=O` (stereo not drawn) [Compound 567], on GSPT1 (setting [2]), the DC50 is no more than 30 nM. On to `O=C1CCC(N2Cc3c(F)cc(COC(=O)Nc4cc(F)c(F)c(Cl)c4)cc3C2=O)C(=O)N1` (stereo not drawn) [Compound 561], for which the concentration for half-maximal inhibition (IC50) in test [1] (Table 3B, read-out: rFP IC50) is greater than 1900 nM. The DC50 at GSPT1 (setting [2]) was no more than 30 nM. `Cc1ccc(NC(=O)OCc2ccc3c(c2C)C(=O)N(C2CCC(=O)NC2=O)C3)cc1Cl` (stereo not drawn) [Compound 573]: the IC50 in test [1] (Table 3B, read-out: rFP IC50) is no more than 600 nM. Besides, the DC50 at GSPT1 (setting [2]) is greater than 300 nM. For the compound `CC1(C)COc2cc(NC(=O)OCc3cc(F)c4c(c3)C(=O)N(C3CCC(=O)NC3=O)C4)ccc21` (stereo not drawn) [Compound 517], the 50% inhibitory concentration (IC50) in test [1] (Table 3B, read-out: rFP IC50) is no more than 600 nM. The DC50 at GSPT1 (setting [2]) is no more than 30 nM. For the compound `COc1cc(COC(=O)Nc2ccc(N3CCC[C@@H]3C)nc2)cc2c1CN(C1CCC(=O)NC1=O)C2=O` (stereo partly drawn) [Compound 562], in test [1] (Table 3B, read-out: rFP IC50), the IC50 is no more than 600 nM. The DC50 on GSPT1 (setting [2]) lay within 30 to 300 nM.

In the case of `CC(C)(C)c1ccc(NC(=O)OCc2cc(F)c3c(c2)C(=O)N(C2CCC(=O)NC2=O)C3)cc1` (stereo not drawn) [Compound 510], the IC50 in test [1] (Table 3B, read-out: rFP IC50) is greater than 1900 nM. The DC50 on GSPT1 (setting [2]) is 30 to 300 nM.

For `COc1cc(COC(=O)Nc2ccc(C3CCC3)cc2)cc2c1CN(C1CCC(=O)NC1=O)C2=O` (stereo not drawn) [Compound 557], the IC50 in test [1] (Table 3B, read-out: rFP IC50) is no more than 600 nM. For the same compound, the DC50 at GSPT1 (setting [2]) is no more than 30 nM. For the compound `COc1ccc(C)cc1NC(=O)NCc1ccc2c(c1)C(=O)N(C1CCC(=O)NC1=O)C2` (stereo not drawn) [Compound 17], the IC50 in test [1] (setting [5]) was less than 600 nM. On the same count and under the same terms, as for `O=C1CCC(N2Cc3ccc(CNC(=O)NCC4CC4)cc3C2=O)C(=O)N1` (stereo not drawn) [Compound 26], the figure is less than 600 nM.
